Source: article PMC11684530 (ACS Omega, 2024)

Target: T1, COX-2 (cyclooxygenase-2) (Homo sapiens, UniProt P35354)
T1 sequence (P35354 18-604): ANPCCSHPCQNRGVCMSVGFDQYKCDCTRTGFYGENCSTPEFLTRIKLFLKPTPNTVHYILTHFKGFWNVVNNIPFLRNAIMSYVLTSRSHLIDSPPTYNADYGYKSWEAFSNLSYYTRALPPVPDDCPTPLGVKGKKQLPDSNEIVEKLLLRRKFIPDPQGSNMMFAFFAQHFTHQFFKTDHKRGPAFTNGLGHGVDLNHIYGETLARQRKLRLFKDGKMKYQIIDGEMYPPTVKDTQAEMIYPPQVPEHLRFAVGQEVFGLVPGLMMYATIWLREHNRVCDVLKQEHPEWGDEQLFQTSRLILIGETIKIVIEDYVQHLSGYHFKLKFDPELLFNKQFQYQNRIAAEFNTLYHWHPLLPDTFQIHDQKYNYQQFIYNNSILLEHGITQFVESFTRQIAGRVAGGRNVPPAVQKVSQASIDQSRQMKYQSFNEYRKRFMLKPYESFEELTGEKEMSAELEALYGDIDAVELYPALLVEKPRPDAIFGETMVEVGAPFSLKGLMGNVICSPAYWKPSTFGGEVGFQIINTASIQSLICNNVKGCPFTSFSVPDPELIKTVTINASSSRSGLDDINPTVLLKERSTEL
Assay: fluorometric COX-2 inhibitor screening kit
Format: biochemical

Row | SMILES | IC50 [µM]
1 | CC(C)=CCc1c(O)cc(O)c2c(=O)cc(-c3ccccc3)oc12 [compound 8, 5,7-Dihydroxy-8-(3-methylbut-2-en-1-yl)-2-phenyl-4H-chromen-4-one] | 6.76
2 | O=c1cc(-c2ccccc2)oc2cc(O)c(CCO)c(O)c12 [1a, 5,7-Dihydroxy-6-(2-hydroxyethyl)-2-phenyl-4H-chromen-4-one] | 9.63
3 | O=c1cc(-c2ccccc2)oc2cc(O)cc(O)c12 [chrysin] | 18.5
